Assay results: US12624018B1, “Inhibitors of RIPK2 and medical uses thereof” (Odyssey Therapeutics, Inc., priority 2022, dated 2026)

target: T1, RIPK2 enzyme (Homo sapiens, UniProt O43353); experiment: RIPK2 inhibition (ADP-Glo Kinase Assay); assay type: biochemical; details: RIPK2 5 nM, ATP 150 μM, MBP substrate, read-out: RIPK2 IC50
T1 construct: purchased Carna 09-128
In short: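 Human RIPK2 (5 nM) preincubated with compound 30 min at room temperature in 50 mM HEPES pH 7.5, 10 mM MgCl2, 2 mM DTT, 1 mM EGTA, 0.01% Brij-35, 0.05% BSA; native swine MBP as substrate. ADP formed quantified by ADP-Glo luminescence; percent inhibition relative to DMSO and no-enzyme controls.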

T1 sequence (O43353 1-299 limits assumed): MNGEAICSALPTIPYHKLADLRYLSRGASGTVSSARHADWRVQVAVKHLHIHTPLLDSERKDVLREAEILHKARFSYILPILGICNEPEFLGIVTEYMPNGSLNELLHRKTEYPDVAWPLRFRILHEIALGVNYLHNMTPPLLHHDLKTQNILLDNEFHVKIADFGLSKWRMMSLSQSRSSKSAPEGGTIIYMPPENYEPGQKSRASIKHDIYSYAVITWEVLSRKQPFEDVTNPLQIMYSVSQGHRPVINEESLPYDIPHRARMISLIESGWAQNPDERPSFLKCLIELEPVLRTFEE

SMILES	IC50 [nM]
Cc1cc(CC(=O)Nc2cnn(C(C)(C)C)c2)ccc1Oc1ccnc2cc(OCC(F)(F)F)c(S(C)(=O)=O)cc12 [Compound 219, N-(1-(tert-butyl)-1H-pyrazol-4-yl)-2-(3-methyl-4-((6-(methylsulfonyl)-7-(2,2,2-trifluoroethoxy)quinolin-4-yl)oxy)phenyl)acetamide]	< 2.5
Cc1cc(CC(=O)Nc2cnn(C(C)(C)C)c2)ccc1Oc1ccnc2ccc(OCCN)cc12 [Compound 222, 2-(4-((6-(2-aminoethoxy)quinolin-4-yl)oxy)-3-methyl-phenyl)-N-(1-(tert-butyl)-1H-pyrazol-4-yl)acetamide]	< 2.5
Cc1cc(CC(=O)Nc2cnn(C(C)(C)C)c2)ccc1Oc1ccnc2ccc(OCCO)cc12 [Compound 223, N-(1-(tert-butyl)-1H-pyrazol-4-yl)-2-(4-((6-(2-hydroxy-ethoxy)quinolin-4-yl)oxy)-3-methylphenyl) acetamide]	< 2.5
Cc1cc(CC(=O)Nc2cnn(C(C)(C)C)c2)ccc1Oc1ccnc2ccc(OCC(C)(C)O)cc12 [Compound 226, N-(1-(tert-butyl)-1H-pyrazol-4-yl)-2-(4-((6-(2-hydroxy-2-methyl-propoxy)quinolin-4-yl)oxy)-3-methylphenyl) acetamide]	< 2.5
Cc1cc(CC(=O)Nc2cnn(C(C)(C)C)c2)ccc1Oc1ccnc2ccc(OCC(=O)O)cc12 [Compound 227, 2-((4-(4-(2-((1-(tert-butyl)-1H-pyrazol-4-yl)amino)-2-oxoethyl)-2-methyl-phenoxy)quinolin-6-yl)oxy)acetic acid]	< 2.5
Cc1cc(CC(=O)Nc2cnn(C(C)(C)C)c2)ccc1Oc1ccnc2ccc(OC3CNC3)cc12 [Compound 228, 2-(4-((6-(azetidin-3-yloxy)quinolin-4-yl)oxy)-3-methyl-pheny 1)-N-(1-(tert-butyl)-1H-pyrazol-4-yl)acetamide]	5.9
CC(=O)N1CC(Oc2ccc3nccc(Oc4ccc(CC(=O)Nc5cnn(C(C)(C)C)c5)cc4C)c3c2)C1 [Compound 229, 2-(4-((6-((1-acetylazetidin-3-yl)oxy)quinolin-4-yl)oxy)-3-methyl-phenyl)-N-(1-(tert-butyl)-1H-pyrazol-4-yl)acetamide]	< 2.5
Cc1cc(CC(=O)Nc2cc(C(C)(C)C)n(C)n2)ccc1Oc1ccnc2ccc(S(C)(=O)=O)cc12 [Compound 230, N-(5-(tert-butyl)-1-methyl-1H-pyrazol-3-yl)-2-(3-methyl-4-((6-(methylsulfonyl)quinolin-4-yl)oxy)phenyl)acetamide]	< 2.5
[2H]C([2H])([2H])n1nc(NC(=O)Cc2ccc(Oc3ccnc4ccc(S(C)(=O)=O)cc34)c(C)c2)cc1C(C)(C)C [Compound 231, N-(5-(tert-butyl)-1-(methyl-d3)-1H-pyrazol-3-yl)-2-(3-methyl-4-((6-(methylsulfonyl)quinolin-4-yl)oxy)phenyl)acetamide]	< 2.5
CCn1nc(NC(=O)Cc2ccc(Oc3ccnc4ccc(S(C)(=O)=O)cc34)c(C)c2)cc1C(C)(C)C [Compound 232, N-(5-(tert-butyl)-1-ethyl-1H-pyrazol-3-yl)-2-(3-methyl-4-((6-(methylsulfonyl)quinolin-4-yl)oxy)phenyl)acetamide]	< 2.5
Cc1cc(CC(=O)Nc2cc(C(C)C)n(C)n2)ccc1Oc1ccnc2ccc(S(C)(=O)=O)cc12 [Compound 233, N-(5-isopropyl-1-methyl-1H-pyrazol-3-yl)-2-(3-methyl-4-((6-(methylsulfonyl)quinolin-4-yl)oxy)phenyl)acetamide]	< 2.5
Cc1cc(CC(=O)Nc2cc(C3CC3)[nH]n2)ccc1Oc1ccnc2ccc(S(C)(=O)=O)cc12 [Compound 234, N-(5-cyclopropyl-1H-pyrazol-3-yl)-2-(3-methyl-4-((6-(methylsulfonyl)quinolin-4-yl)oxy)phenyl)acetamide]	< 2.5
Cc1cc(CC(=O)Nc2cc(C3CC3)n(C)n2)ccc1Oc1ccnc2ccc(S(C)(=O)=O)cc12 [Compound 235, N-(5-cyclopropyl-1-methyl-1H-pyrazol-3-yl)-2-(3-methyl-4-((6-(methylsulfonyl)quinolin-4-yl)oxy)phenyl)acetamide]	< 2.5
Cc1cc(CC(=O)Nc2cc(C(C)(C)O)[nH]n2)ccc1Oc1ccnc2ccc(S(C)(=O)=O)cc12 [Compound 236, N-(5-(2-hydroxypropan-2-yl)-1H-pyrazol-3-yl)-2-(3-methyl-4-((6-(methylsulfonyl)quinolin-4-yl)oxy)phenyl)acetamide]	< 2.5
Cc1cc(CC(=O)Nc2cnn(C(C)(C)C)c2)ccc1Oc1ccnc2ccc(S(=O)(=O)CC3COC3)cc12 [Compound 240, N-(1-(tert-butyl)-1H-pyrazol-4-yl)-2-(3-methyl-4-((6-((oxetan-3-ylmethyl)sulfonyl)quinolin-4-yl)oxy)phenyl)acetamide]	< 2.5
Cc1cc(CC(=O)Nc2cnn(C(C)(C)C)c2)ccc1Oc1ccnc2ccc(S(=O)(=O)C3CCC(=O)NC3)cc12 (stereo not shown) [Compound 243, N-(1-(tert-butyl)-1H-pyrazol-4-yl)-2-(3-methyl-4-((6-((6-oxopiperidin-3-yl)sulfonyl)quinolin-4-yl)oxy)phenyl)acetamide]	< 2.5

SMILES	IC50 [nM]
Cc1cc(CC(=O)Nc2cnn(C(C)(C)C)c2)ccc1Oc1ccnc2ccc(-c3ncc(CO)cn3)cc12 [Compound 244, N-(1-(tert-butyl)-1H-pyrazol-4-yl)-2-(4-((6-(5-(hydroxymethyl)pyrimidin-2-yl)quinolin-4-yl)oxy)-3-methylphenyl)acetamide]	< 2.5
Cc1cc(CC(=O)Nc2cnn(C(C)(C)C)c2)ccc1Oc1ccnc2ccc(-c3ccc[nH]c3=O)cc12 [Compound 245, N-(1-(tert-butyl)-1H-pyrazol-4-yl)-2-(3-methyl-4-((6-(2-oxo-1,2-dihydropyridin-3-yl)quinolin-4-yl)oxy)phenyl)acetamide]	< 2.5
Cc1cc(CC(=O)Nc2cnn(C(C)(C)C)c2)ccc1Oc1ccnc2ccc(-c3cccn(C)c3=O)cc12 [Compound 246, N-(1-(tert-butyl)-1H-pyrazol-4-yl)-2-(3-methyl-4-((6-(1-methyl-2-oxo-1,2-dihydropyridin-3-yl)quinolin-4-yl)oxy)phenyl)acetamide]	3.8
Cc1cc(CC(=O)Nc2cnn(C(C)(C)C)c2)ccc1Oc1ccnc2ccc(-c3ncc[nH]c3=O)cc12 [Compound 247, N-(1-(tert-butyl)-1H-pyrazol-4-yl)-2-(3-methyl-4-((6-(3-oxo-3,4-dihydropyrazin-2-yl)quinolin-4-yl)oxy)phenyl)acetamide]	< 2.5
Cc1c(Oc2ccnc3ccc(S(=O)(=O)C4COC4)cc23)ccc(CC(=O)Nc2cnn(C(C)(C)C)c2)c1F [Compound 248, N-(1-(tert-butyl)-1H-pyrazol-4-yl)-2-(2-fluoro-3-methyl-4-((6-(oxetan-3-ylsulfonyl)quinolin-4-yl)oxy)phenyl)acetamide]	< 2.5
Cc1c(Oc2ccnc3ccc(S(=O)(=O)C4CCOCC4)cc23)ccc(CC(=O)Nc2cnn(C(C)(C)C)c2)c1F [Compound 249, N-(1-(tert-butyl)-1H-pyrazol-4-yl)-2-(2-fluoro-3-methyl-4-((6-((tetrahydro-2H-pyran-4-yl)sulfonyl)quinolin-4-yl)oxy)phenyl)acetamide]	< 2.5
Cc1cc(CC(=O)Nc2cnn(C(C)(C)C)c2)ccc1Oc1ccnc2ccc(CN3CCNCC3)cc12 [Compound 252, N-(1-(tert-butyl)-1H-pyrazol-4-yl)-2-(3-methyl-4-((6-(piperazin-1-ylmethyl)quinolin-4-yl)oxy)phenyl)acetamide]	< 2.5
Cc1cc(CC(=O)Nc2cnn(C(C)(C)C)c2)ccc1Oc1ccnc2ccc(S(N)(=O)=O)cc12 [Compound 254, N-(1-(tert-butyl)-1H-pyrazol-4-yl)-2-(3-methyl-4-((6-sulfamoylquinolin-4-yl)oxy)phenyl)acetamide]	< 2.5
CNS(=O)(=O)c1ccc2nccc(Oc3ccc(CC(=O)Nc4cnn(C(C)(C)C)c4)cc3C)c2c1 [Compound 255, N-(1-(tert-butyl)-1H-pyrazol-4-yl)-2-(3-methyl-4-((6-(N-methylsulfamoyl)quinolin-4-yl)oxy)phenyl)acetamide]	< 2.5
Cc1cc(CC(=O)Nc2cnn(C(C)(C)C)c2)ccc1Oc1ccnc2ccc(S(=O)(=O)N(C)C)cc12 [Compound 256, N-(1-(tert-butyl)-1H-pyrazol-4-yl)-2-(4-((6-(N,N-dimethylsulfamoyl)quinolin-4-yl)oxy)-3-methylphenyl)acetamide]	< 2.5
Cc1cc(CC(=O)Nc2cnn(C(C)(C)C)c2)ccc1Oc1ccnc2ccc(S(=O)(=O)N3CCCC3)cc12 [Compound 257, N-(1-(tert-butyl)-1H-pyrazol-4-yl)-2-(3-methyl-4-((6-(pyrrolidin-1-ylsulfonyl)quinolin-4-yl)oxy)phenyl)acetamide]	< 2.5
Cc1cc(CC(=O)Nc2cnn(C(C)(C)C)c2)ccc1Oc1ccnc2ccc(S(=O)(=O)N3CCC3)cc12 [Compound 258, 2-(4-((6-(azetidin-1-ylsulfonyl)quinolin-4-yl)oxy)-3-methylphenyl)-N-(1-(tert-butyl)-1H-pyrazol-4-yl)acetamide]	< 2.5
Cc1cc(CC(=O)Nc2cnn(C(C)(C)C)c2)ccc1Oc1ccnc2ccc(S(=O)(=O)N3CC(F)C3)cc12 [Compound 259, N-(1-(tert-butyl)-1H-pyrazol-4-yl)-2-(4-((6-((3-fluoroazetidin-1-yl)sulfonyl)quinolin-4-yl)oxy)-3-methylphenyl)acetamide]	< 2.5
Cc1cc(CC(=O)Nc2cnn(C(C)(C)C)c2)ccc1Oc1ccnc2ccc(S(=O)(=O)N3CC(C#N)C3)cc12 [Compound 260, N-(1-(tert-butyl)-1H-pyrazol-4-yl)-2-(4-((6-((3-cyanoazetidin-1-yl)sulfonyl)quinolin-4-yl)oxy)-3-methylphenyl)acetamide]	2.5
Cc1cc(CC(=O)Nc2cnn(C(C)(C)C)c2)ccc1Oc1ccnc2ccc(S(=O)(=O)N3CCOCC3)cc12 [Compound 261, N-(1-(tert-butyl)-1H-pyrazol-4-yl)-2-(3-methyl-4-((6-(morpholinosulfonyl)quinolin-4-yl)oxy)phenyl)acetamide]	< 2.5
